US20030070184A1, “LIGANDS FOR DISCOIDIN DOMAIN RECEPTOR TYROSINE KINASES AND COMPLEXES THEREOF” (priority 1999, published 2003)
Several values for one entry are separate records, joined by “and”; a condition that tells them apart may be missing. Equal entries are not always repeated. Entries after “also recorded” stand apart in the source; their conditions may differ. Each block holds one molecule with its values, some of them ahead of it. Where a SMILES comes first, the peptide text is derived from it. [ ]: non-standard residue; d: D form. pY = N[C@@H](Cc1ccc(OP(=O)(O)O)cc1)C(=O)O

Experiments:
Shc PTB domain = target: T1, Shc PTB domain (Homo sapiens, UniProt P29353); assay: Surface plasmon resonance competition: GST-Shc PTB domain binding to immobilized middle T antigen phosphopeptide; conditions: IC50, inhibition of binding of the Shc PTB domain to the middle T antigen phosphopeptide, BIAcore, soluble competing phosphopeptide
T1 construct: the PTB domain fusion construct comprises amino acids 1-225 of human p52 Shc; made in house; host or cells: E. coli
T1 sequence (P29353 1-225 isoform P29353-2): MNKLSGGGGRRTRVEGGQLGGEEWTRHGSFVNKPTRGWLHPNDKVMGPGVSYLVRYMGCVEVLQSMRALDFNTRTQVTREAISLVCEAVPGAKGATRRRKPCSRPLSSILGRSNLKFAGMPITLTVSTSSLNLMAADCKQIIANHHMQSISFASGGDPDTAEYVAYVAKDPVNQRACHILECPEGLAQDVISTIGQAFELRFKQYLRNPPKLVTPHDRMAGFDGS
Description: Surface plasmon resonance—experiments were done with a BIAcore instrument (Pharmacia). A phosphopeptide corresponding to the NPXY sequence in the polyomavirus middle T antigen (mT) (LSLLSNPTpYSVNSK) was absorbed to the surface of a biosensor chip. Binding of soluble GST-Shc PTB domain fusion protein to the mT peptide was measured in the presence or absence of competing soluble phosphopeptides based on the sequences around Tyr 513 of DDR1b or Tyr 490 of the NGFR (HIIENPQpYFSD) (21).
Experiments were done with a BIAcore instrument (Pharmacia). A phosphopeptide corresponding to the NPXY sequence in the polyomavirus middle T antigen (LSLLSNPTpYSVMRSK) was absorbed to the surface of a biosensor chip. Binding of soluble GST-Shc PTB domain fusion protein to the middle T peptide was measured in presence or absence of competing soluble phosphopeptides based on the sequences around tyrosine 513 of DDR1b (ALLLSNPApYRLLLA) or tyrosine 490 of the NGF receptor (HIIENPQpYFSD).

DDR receptors = assay: Effect of other agents on DDR activity / collagen-induced DDR tyrosine phosphorylation; type: cell-based; conditions: for effect on DDR activity: collagen-associated molecules
DDR1b = target: T2, DDR1b (Homo sapiens, UniProt Q08345); assay: Tyrosine phosphorylation of endogenous DDR1b in carcinoma cells (T-47D; A431), immunoprecipitation and anti-phosphotyrosine blot; type: cell-based; conditions: T-47D, 90 min; collagens/gelatin 10 μg/ml, orthovanadate 1 mM
T2 construct: endogenous in cells; host or cells: T-47D human mammary carcinoma cells (A431 also named)
From the text: To investigate the effects of collagen on cells that express endogenous DDR tyrosine kinases, the mammary carcinoma cell line T-47D was employed. Previous results have shown that DDR1 is highly expressed in human carcinoma cell lines, in particular, the breast cancer cell lines BT-20, MDA-MB-175 and T-47D (1) (Perez et al., 1996). […] The time course of endogenous DDR1b tyrosine phosphorylation in T-47D cells was even slower than in 293 cells, with maximal activation being achieved only after stimulation for 18 hours.
To further investigate the role of different types of collagen in the activation of DDR1 and DDR2, collagen types I, II, III and V purified from human placenta and collagen type II from bovine tracheal cartilage were obtained. To test their ability to induce receptor tyrosine phosphorylation, 293 cells overexpressing DDR1 or DDR2 were employed. […] The various types of collagen were also tested for their ability to stimulate tyrosine phosphorylation of endogenous DDR1b present in T-47D cells. For this purpose, DDR1b was immunoprecipitated from lysates of stimulated T-47D cells and analyzed by Western blotting with anti-phosphotyrosine antibodies. […] As previously shown, DDR1 tyrosine phosphorylation could also be activated by treating cells with 1 mM orthovanadate, an inhibitor of tyrosine phosphatases. Furthermore, gelatin which contains heat denatured collagen was tested for its capacity to induce DDR1b tyrosine phosphorylation.
Integrins of the type α1β1 and α2β1 have long been known to be receptors for collagen. Therefore, tests were conducted to determine if these integrins are somehow involved in the activation of DDR1b. The mammary carcinoma cell line T-47D, which endogenously expresses the b-isoform of DDR1, was used. Monoclonal antibodies directed against the extracellular domains of integrins can block binding to collagen and therefore signaling of integrins. T-47D cells were treated with antibody A2-IIE10 against α2-integrin and antibody DE9 against β1-integrin (both from Upstate Biotechnology) in the absence or presence of 10 μg/ml collagen type I overnight. DDR1b or Shc were immunoprecipitated from cellular lysates and analyzed by Western blotting with antiphosphotyrosine antibody.
DDR1b and DDR2 were transfected into 293 cells and were stimulated with 10 µg/ml mouse collagen type I for different periods of time. (FIG. 9A and FIG. 9B) Total cellular lysates were probed with antiphosphotyrosine antibody. Maximal activation is seen 90 min after stimulation of DDR1b (FIG. 9A) and DDR2 (FIG. 9B). (FIG. 9C) Human mammary carcinoma T-47D cells were cultivated on 10 cm dishes to confluence and starved in 0.5% serum overnight. Cells were stimulated with collagen type I for various periods of time and lysed. DDR1b was immunoprecipitated from the lysates and analyzed by Western blotting with antiphosphotyrosine antibody. Maximal phosphorylation of DDR1b is seen after stimulation for 18 h. An unidentified, tyrosine phosphorylated protein with an apparent molecular weight of 115 kDa is copurified in the immunoprecipitations. […] Prolonged stimulation with collagen increases the processing of DDR1b in T-47D cells, indicated by an additional 62 kDa band. (FIGS. 9E and 9F) DDR1b was immunoprecipitated from overexpressing 293 cells (E) and T-47D (FIG. 9F) cells and subjected to an in vitro kinase reaction. The incorporation of [^32P]-phosphate is monitored by SDS-PAGE followed by autoradiograpy.

DDR2 = target: T3, DDR2 (Homo sapiens, UniProt Q16832); assay: DDR2 tyrosine phosphorylation in transfected 293 cells (anti-phosphotyrosine Western blot); type: cell-based; conditions: 90 min; for ligand activity: induction of DDR2 tyrosine phosphorylation: soluble agent added to medium of transfected 293 cells, 10 μg/ml
T3 construct: expressed in transfected cells; host or cells: 293 cells, CMV-based expression vector
T3 sequence (Q16832 22-855): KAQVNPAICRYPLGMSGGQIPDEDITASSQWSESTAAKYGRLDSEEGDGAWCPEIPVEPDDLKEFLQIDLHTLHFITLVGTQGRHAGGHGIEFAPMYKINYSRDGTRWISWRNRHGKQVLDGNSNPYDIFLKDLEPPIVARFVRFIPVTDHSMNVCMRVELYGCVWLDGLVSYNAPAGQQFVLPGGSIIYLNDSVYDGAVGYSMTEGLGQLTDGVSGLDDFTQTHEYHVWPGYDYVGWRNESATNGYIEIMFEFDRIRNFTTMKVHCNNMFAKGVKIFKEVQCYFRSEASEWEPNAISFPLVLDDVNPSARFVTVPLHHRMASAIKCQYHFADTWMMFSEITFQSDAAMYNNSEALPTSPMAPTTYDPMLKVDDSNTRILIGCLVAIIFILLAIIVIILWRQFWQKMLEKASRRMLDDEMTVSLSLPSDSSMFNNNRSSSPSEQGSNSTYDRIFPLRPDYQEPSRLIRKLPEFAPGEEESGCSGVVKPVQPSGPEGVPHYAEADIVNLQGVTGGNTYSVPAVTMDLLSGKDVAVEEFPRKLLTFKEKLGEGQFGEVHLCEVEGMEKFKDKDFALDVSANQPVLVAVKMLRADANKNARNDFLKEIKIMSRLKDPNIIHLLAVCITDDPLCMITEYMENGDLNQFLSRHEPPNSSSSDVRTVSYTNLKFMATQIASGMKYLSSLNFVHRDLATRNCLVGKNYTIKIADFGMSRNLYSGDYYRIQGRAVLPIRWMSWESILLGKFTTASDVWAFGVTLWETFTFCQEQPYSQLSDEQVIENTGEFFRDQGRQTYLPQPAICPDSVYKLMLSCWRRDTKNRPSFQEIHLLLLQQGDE
Description: (§1) Semiconfluent 293 cells were transfected by calcium-phosphate precipitation with a cytomegalovirus-based expression vector. Sixteen hours later, cells were transferred to serum-free media for another 24 h. Cells were stimulated with 10 μg/ml collagen for 90 min and lysed with 1% Triton-X 100, 50 mM HEPES (pH 7.5), 150 mM NaCl, 1.5 mM MgCl2, 5 mM EGTA, 5 mM EDTA, 10% glycerol, 10 mM NaF, 1 mM phenylmethylsulfonyl fluoride (PMSF), 1 mM Na-orthovanadate, 10 μg/ml aprotinin. The cellular lysates were centrifuged 10 min at 4° C. and 13,000 rpm and aliquots of the supernatant were subjected to SDS-PAGE or further analyzed by immunoprecipitation with specific antibodies for 3 h at 4° C. on a rotating wheel. The immunocomplex was washed three times with 20 mM HEPES (pH 7.5), 150 mM NaCl, 0.1% Triton, 10% glycerol and analyzed by SDS-PAGE. Proteins were transferred to nitrocellulose membrane (Schleicher & Schuell) and immunoblotted with antibodies diluted 1:500 in 50 mM Tris (pH 7.5), 150 mM NaCl, 5 mM EDTA, 0.05% gelatin overnight. Western blots were developed using horseradish peroxidase-coupled secondary antibody (Biorad) and enhanced chemiluminescence (Amersham). For reprobing, the membrane was stripped in 70 mM Tris (pH 6.8), 2% SDS, 0.1% P-mercaptoethanol at 55° C. for 30 min. For in vitro kinase assays, immunoprecipitates were washed twice with in 40 mM HEPES (pH 7.5), 20 mM MgCl2, 2 mM MnCl2, 100 μM orthovanadate, 5 μM dATP and incubated with 5 μCi [γ-^32P] ATP at 30° C. for 20 min. The products of the kinase reaction were monitored by SDS-PAGE and autoradiography.

DDR1 = target: T4, DDR1 (Homo sapiens, UniProt Q08345); assay: DDR1 tyrosine phosphorylation in transfected 293 cells (anti-phosphotyrosine Western blot); type: cell-based; conditions: 90 min; for ligand activity: induction of DDR1 (DDR1b) tyrosine phosphorylation: soluble agent added to medium of transfected 293 cells, 10 μg/ml
T4 construct: expressed in transfected cells; host or cells: human embryonic kidney 293 cells, CMV-based expression vector
Description: as §1
To identify possible sources for the ligand of DDR1, an in vivo screening system was established. Human embryonic kidney fibroblast 293 cells were transiently transfected with expression plasmids coding for DDR1b. Growth-arrested cells were then stimulated with various agents and monitored for receptor activation by anti-phosphotyrosine Western blotting of total cellular lysates. […] The increase of DDR1b autophosphorylation was dependent on the concentration of matrigel added to the cells (FIG. 7A).

[1] = transfected 293 cells plated on collagen-coated dishes

T4 sequence (Q08345 19-913): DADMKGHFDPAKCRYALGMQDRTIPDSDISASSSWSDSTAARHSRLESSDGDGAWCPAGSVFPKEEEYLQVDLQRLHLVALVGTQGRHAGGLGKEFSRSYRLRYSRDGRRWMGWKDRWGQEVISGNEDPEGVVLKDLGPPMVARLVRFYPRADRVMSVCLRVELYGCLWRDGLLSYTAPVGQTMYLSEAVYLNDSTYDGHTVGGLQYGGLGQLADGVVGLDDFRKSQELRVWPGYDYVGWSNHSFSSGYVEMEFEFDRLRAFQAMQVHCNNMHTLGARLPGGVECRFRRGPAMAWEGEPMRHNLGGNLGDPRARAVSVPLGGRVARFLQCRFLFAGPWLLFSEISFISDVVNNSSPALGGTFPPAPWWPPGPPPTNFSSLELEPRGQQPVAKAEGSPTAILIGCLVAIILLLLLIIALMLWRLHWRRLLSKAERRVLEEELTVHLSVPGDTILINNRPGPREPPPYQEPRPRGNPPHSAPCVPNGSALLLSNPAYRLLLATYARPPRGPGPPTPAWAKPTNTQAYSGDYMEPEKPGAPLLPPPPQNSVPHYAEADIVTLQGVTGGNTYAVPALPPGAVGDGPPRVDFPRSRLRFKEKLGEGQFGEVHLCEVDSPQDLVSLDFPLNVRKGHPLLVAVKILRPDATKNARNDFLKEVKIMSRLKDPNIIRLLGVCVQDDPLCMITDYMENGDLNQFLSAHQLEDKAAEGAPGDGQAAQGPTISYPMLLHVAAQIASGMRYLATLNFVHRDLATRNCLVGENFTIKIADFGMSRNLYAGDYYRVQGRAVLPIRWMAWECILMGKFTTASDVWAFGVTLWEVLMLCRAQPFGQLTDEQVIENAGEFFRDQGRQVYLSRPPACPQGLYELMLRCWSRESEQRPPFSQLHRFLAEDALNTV
T2 sequence (Q08345 19-913): as above

Molecule: CC[C@H](C)[C@H](NC(=O)[C@@H](NC(=O)[C@@H](N)Cc1c[nH]cn1)[C@@H](C)CC)C(=O)N[C@@H](CCC(=O)O)C(=O)N[C@@H](CC(N)=O)C(=O)N1CCC[C@H]1C(=O)N[C@@H](CCC(N)=O)C(=O)N[C@@H](Cc1ccc(OP(=O)(O)O)cc1)C(=O)N[C@@H](Cc1ccccc1)C(=O)N[C@@H](CO)C(=O)N[C@@H](CC(=O)O)C(=O)O [NGF receptor phosphopeptide, HIIENPQpYFSD] (H-HIIENPQ[pY]FSD-OH; N-terminus and C-terminus assumed)
IC50 (Shc PTB domain): ~100 nM and 70 nM

Molecule: C[C@@H]1C[C@@H]([C@H](O)CC2CC(=O)NC(=O)C2)C(=O)[C@@H](C)C1 [cycloheximide, reference compound]
effect on ability of collagen to induce DDR tyrosine phosphorylation (DDR receptors; treatment of cells, data not shown): not inhibited

tyrosine phosphorylation of endogenous DDR1b in T-47D cells (DDR1b): activated
Molecule: [O]=[V]([O-])([O-])[O-] [orthovanadate, reference compound]

effect on DDR activity (DDR receptors): no effect
Molecule: chondroitin-sulphate A

tyrosine phosphorylation of endogenous DDR1b in T-47D cells (DDR1b): lower, but still detectable
ligand activity: induction of DDR2 tyrosine phosphorylation (DDR2): moderate activity
Molecule: collagen type II: collagen type II from bovine tracheal cartilage

tyrosine phosphorylation of endogenous DDR1b in T-47D cells (DDR1b): lower, but still detectable
ligand activity: induction of DDR1 (DDR1b) tyrosine phosphorylation (DDR1): equally good ligands
DDR1b tyrosine phosphorylation on immobilized collagen (DDR1; [1]): further increased
DDR2 tyrosine phosphorylation on immobilized collagen (DDR2; [1]): triggered
Molecule: collagen type III: collagen type III purified from human placenta
ligand activity: induction of DDR2 tyrosine phosphorylation (DDR2): highly potent ligands; also recorded: highly activated

ligand activity: induction of DDR1 (DDR1b) tyrosine phosphorylation (DDR1): neither
Molecule: fibronectin

tyrosine phosphorylation of endogenous DDR1b in T-47D cells (DDR1b): did not induce an increase
Molecule: gelatin

effect on DDR activity (DDR receptors): no effect
Molecule: heparin

ligand activity: induction of DDR1 (DDR1b) tyrosine phosphorylation (DDR1): neither
Molecule: laminin
